# According to patent US7838674B2, “Tetracyclic lactame derivatives” (Novartis AG, priority 2007, dated 2010):
# Where a name gives a salt, the structure may show the parent alone.
# Key:
# [1] = system: TNF-α release from hPBMCs; assay: Assay for inhibition of TNF-α release from hPBMCs (IFNγ/LPS stimulated); format: cell-based; details: Homo sapiens, IFNγ (10 ng/ml) and LPS (5 μg/ml), 3 h
# Description: Assay for Inhibition of TNF-α Release from hPBMCs
# Human peripheral blood mononuclear cells (hPBMCs) are prepared from the peripheral blood of healthy volunteers using Ficoll-Plaque Plus (Amersham) density separation according to the method described within. Cells are seeded at a 1×10^5 cells/well in 96-well plates in RPMI 1640 medium (Invitrogen) containing 10% (v/v) fetal calf serum (FCS). Cells are pre-incubated with serial dilutions of test compound (0.25% v/v DMSO final) for 30 min at 37° C. Cells are stimulated with the addition of IFNγ (10 ng/ml) and lipopolysaccharide(LPS) (5 μg/ml) per well and incubated for 3 h at 37° C. Following a brief centrifugation (250×g for 2 min), supernatant (10 μl) samples are taken from each well and measured against a TNFα calibration curve using a HTRF TNFα kit (CisBio) as described within.
# Using the TNF-α release assay described above, compounds of the formula I can be shown to have the following inhibition values: […]
# [2] = molecular target: T1, MAPKAPK2 enzyme (HIS-MK2, Invitrogen PV4019) (Homo sapiens, UniProt P49137); assay: Alternative MAPKAPK2 assay (Caliper microfluidic mobility shift, HSP27-peptide); format: biochemical; details: HIS-MK2 0.013 nM, ATP 10 μM, 60 min at 30° C.
# T1 construct: His; purchased Invitrogen PV4019
# [3] = molecular target: human MK2 (Homo sapiens, UniProt P49137); assay: MAPKAPK2 kinase assay (TR-FRET, Hsp27 peptide substrate)
# Sequence of human MK2 (P49137 whole entry): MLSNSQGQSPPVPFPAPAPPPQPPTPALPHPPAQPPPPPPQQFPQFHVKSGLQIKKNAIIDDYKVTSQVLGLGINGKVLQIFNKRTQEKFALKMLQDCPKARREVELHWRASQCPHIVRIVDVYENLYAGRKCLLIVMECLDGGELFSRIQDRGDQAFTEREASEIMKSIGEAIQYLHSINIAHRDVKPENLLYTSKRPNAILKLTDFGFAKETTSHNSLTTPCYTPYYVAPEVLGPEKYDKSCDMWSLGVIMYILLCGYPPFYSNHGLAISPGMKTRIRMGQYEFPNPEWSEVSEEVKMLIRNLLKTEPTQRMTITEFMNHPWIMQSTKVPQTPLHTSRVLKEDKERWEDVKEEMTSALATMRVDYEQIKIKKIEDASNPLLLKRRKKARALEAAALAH
# T1 sequence (P49137 whole entry): as above
IC50 [1] [nM],IC50 [2] [nM],IC50 [3] [nM],SMILES
,15,15,"N#Cc1cc(-c2cc3c(cn2)CCc2c-3[nH]c3c2C(=O)NCC32CC2)ccc1N1CCC(O)C1 (stereo not drawn) [Example 312, 2-(3-Hydroxy-pyrrolidin-1-yl)-10-spirocyclopropyl-5-(7-oxo-6,7,8,9,10,11-hexahydro-5H-3,8,11-triaza-benzo[a]fluoren-2-yl)-benzonitrile]"
220,,,"COc1ccc(-c2cc3c(cn2)CCc2c-3[nH]c3c2C(=O)NC2(CC2)C3)cc1 [Example 40, 2-(1-Amino-cyclopropylmethyl)-8-(4-methoxy-phenyl)-4,5-dihydro-1H-pyrrolo[2,3-f]isoquinoline-3-carboxylic acid lactam]"
256,29,,"O=C1NCC2(CC2)c2[nH]c3c(c21)CCc1cnc(-c2ccc(CN4CCOCC4)c(F)c2)cc1-3 [Example 301, 2-(3-Fluoro-4-morpholin-4-ylmethyl-phenyl)-10-spirocyclopropyl-5,6,8,9,10,11-exahydro-3,8,11-triaza-benzo[a]fluoren-7-one]"
333,,,"O=C1NC2(CC2)C2(CC2)c2[nH]c3c(c21)CCc1cnc(-c2cccc(F)c2)cc1-3 [Example 195, 2-(1′-Amino-bicyclopropyl-1-yl)-8-(3-fluoro-phenyl)-4,5-dihydro-1H-pyrrolo[2,3-f]isoquinoline-3-carboxylic acid lactam]"
264,,,"N#Cc1ccc(-c2cc3c(cn2)CCc2c-3[nH]c3c2C(=O)NCC32CC2)cn1 [Example 127, 2-(1-Aminomethyl-cyclopropyl)-8-(6-cyano-pyridin-3-yl)-4,5-dihydro-1H-pyrrolo[2,3-f]isoquinoline-3-carboxylic acid lactam]"
320,,47,"COCCOc1cncc(-c2cc3c(cn2)CCc2c-3[nH]c3c2C(=O)NCC32CC2)c1 [Example 1, 2-(1-Aminomethyl-cyclopropyl)-8-[5-(2-methoxy-ethoxy)-pyridin-3-yl]-4,5-dihydro-1H-pyrrolo[2,3-f]isoquinoline-3-carboxylic acid lactame]"
311,72,,"COc1cncc(-c2cc3c(cn2)CCc2c-3[nH]c3c2C(=O)NC2(CCC2)C3)c1 [Example 99, 2-(1-Amino-cyclobutylmethyl)-8-(5-methoxy-pyridin-3-yl)-4,5-dihydro-1H-pyrrolo[2,3-f]isoquinoline-3-carboxylic acid lactam]"
156,< 3,,"O=C1NCC2(CNC2)c2[nH]c3c(c21)CCc1cnc(-c2cccc(Cl)c2)cc1-3 [Example 187, 2-[3-Aminomethyl-azetidin-3-yl]-8-(3-chloro-phenyl)-4,5-dihydro-1H-pyrrolo[2,3-f]isoquinoline-3-carboxylic acid lactam hydrochloride]"
134,< 3,,"CC(C)Oc1ccc(-c2cc3c(cn2)CCc2c-3[nH]c3c2C(=O)NCC32CN(C)C2)cn1 [Example 185, 2-(3-Aminomethyl-1-methyl-azetidin-3-yl)-8-(6-isopropoxy-pyridin-3-yl)-4,5-dihydro-1H-pyrrolo[2,3-f]isoquinoline-3-carboxylic acid lactam hydrochloride]"
,27,27,"CN(C)CCOc1cc(-c2cc3c(cn2)CCc2c-3[nH]c3c2C(=O)NCC32CC2)ccc1F [Example 311, 2-[3-(2-Dimethylamino-ethoxy)-4-fluoro-phenyl]-10-spirocyclopropyl-5,6,8,9,10,11-hexahydro-3,8,11-triaza-benzo[a]fluoren-7-one]"
336,57,,"Cc1ccc(-c2cc3c(cn2)CCc2c-3[nH]c3c2C(=O)NC2(CCC2)C3)cn1 [Example 103, 2-(1-Amino-cyclobutylmethyl)-8-(6-methyl-pyridin-3-yl)-4,5-dihydro-1H-pyrrolo[2,3-f]isoquinoline-3-carboxylic acid lactam]"

SMILES,IC50 [1] [nM],IC50 [2] [nM],IC50 [3] [nM]
"COc1ccc(-c2ncc3c(n2)-c2[nH]c4c(c2CC3)C(=O)NCC42CN(C)C2)cc1 [Example 207, 2-(3-Aminomethyl-1-methyl-azetidin-3-yl)-8-(4-methoxy-phenyl)-4,5-dihydro-1H-1,7,9-triaza-cyclopenta[a]naphthalene-3-carboxylic acid lactam]",130,,
"CN1CC2(CNC(=O)c3c2[nH]c2c3CCc3cnc(-c4ccccc4F)cc3-2)C1 [Example 172, 2-(3-Aminomethyl-1-methyl-azetidin-3-yl)-8-(2-fluoro-phenyl)-4,5-dihydro-1H-pyrrolo[2,3-f]isoquinoline-3-carboxylic acid lactam]",347,,
